From patent US20220313698A1, “MODULATORS OF CYSTIC FIBROSIS TRANSMEMBRANE CONDUCTANCE REGULATOR” (Vertex Pharmaceuticals Incorporated, priority 2019, published 2022)

Experiments:
[1] = molecular target: T1, CFTR-mediated chloride transport (Homo sapiens, UniProt P13569); experiment: Corrector Assay B - membrane potential dye assay (enteroid cells);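 further: methyl oxonol membrane potential fluorescence followed over 15 min after switching to chloride-free buffer with forskolin, 100 µM IBMX and ivacaftor, in presence of CaCC blockers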
Method: Base medium (ADF+++) consisted of Advanced DMEM/Ham's F12, 2 mM Glutamax, 10 mM HEPES, 1 μg/ml penicillin/streptomycin.
Intestinal enteroid maintenance medium (IEMM) consisted of ADF+++, 1×B27 supplement, 1×N2 supplement, 1.25 mM N-acetyl cysteine, 10 mM Nicotinamide, 50 ng/mL hEGF, 10 nM Gastrin, 1 μg/mL hR-spondin-1, 100 ng/mL hNoggin, TGF-b type 1 inhibitor A-83-01, 100 μg/mL Primocin, 10 μM P38 MAPK inhibitor SB202190.
Bath 1 Buffer consisted of 1 mM MgCl2, 160 mM NaCl, 4.5 mM KCl, 10 mM HEPES, 10 mM Glucose, 2 mM CaCl2).
Chloride Free Buffer consisted of 1 mM Magnesium Gluconate, 2 mM Calcium Gluconate, 4.5 mM Potassium Gluconate, 160 mM Sodium Gluconate, 10 mM HEPES, 10 mM Glucose.
Bath 1 Dye Solution consisted of Bath 1 Buffer, 0.04% Pluronic F127, 20 μM Methyl Oxonol, 30 μM CaCCinh-A01, 30 μM Chicago Sky Blue.
Chloride Free Dye Solution consisted of Chloride Free Buffer, 0.04% Pluronic F127, 20 μM Methyl Oxonol, 30 μM CaCCinh-A01, 30 μM Chicago Sky Blue.
Chloride Free Dye Stimulation Solution consisted of Chloride Free Dye Solution, 10 μM forskolin, 100 μM IBMX, and 300 nM Ivacaftor.
Cells were recovered in cell recovery solution, collected by centrifugation at 650 rpm for 5 min at 4° C., resuspended in TryPLE and incubated for 5 min at 37° C. Cells were then collected by centrifugation at 650 rpm for 5 min at 4° C. and resuspended in IEMM containing 10 μM ROCK inhibitor (RI). The cell suspension was passed through a 40 μm cell strainer and resuspended at 1×10^6 cells/mL in IEMM containing 10 μM RI. Cells were seeded at 5000 cells/well into multi-well plates and incubated for overnight at 37° C., 95% humidity and 5% CO2 prior to assay.
Briefly, cells were washed 5 times in Bath 1 Buffer. Bath 1 Dye Solution was added and the cells were incubated for 25 min at room temperature. Following dye incubation, cells were washed 3 times in Chloride Free Dye Solution. Chloride transport was initiated by addition of Chloride Free Dye Stimulation Solution and the fluorescence signal was read for 15 min. The CFTR-mediated chloride transport for each condition was determined from the AUC of the fluorescence response to acute forskolin and 300 nM N-[2,4-bis(1,1-dimethylethyl)-5-hydroxyphenyl]-1,4-dihydro-4-oxoquinoline-3-carboxamide stimulation. Chloride transport was then expressed as a percentage of the chloride transport following treatment with 3 μM Compound A, 3 μM (R)-1-(2,2-difluorobenzo[d][1,3]dioxol-5-yl)-N-(1-(2,3-dihydroxypropyl)-6-fluoro-2-(1-hydroxy-2-methylpropan-2-yl)-1H-indol-5-yl)cyclopropanecarboxamide and 300 nM acute N-[2,4-bis(1,1-dimethylethyl)-5-hydroxyphenyl]-1,4-dihydro-4-oxoquinoline-3-carboxamide triple combination control (% Activity).

[2] = molecular target: T1, CFTR-mediated chloride transport; experiment: Corrector Assay A - membrane potential dye assay (enteroid cells); settings: for Corrector Assay A % activity: % of chloride transport of triple combination control (1 μM (14S)-dispiro macrocycle + 3 μM tezacaftor + 300 nM ivacaftor); for EC50: read-out: Corrector Assay A EC50, human intestinal enteroid cells, 18-24 h incubation, acute 10 μM forskolin + 300 nM ivacaftor

| Structure (SMILES) | Corrector Assay B % activity ([1]; % of chloride transport of triple combination control (3 μM Compound A + 3 μM tezacaftor + 300 nM ivacaftor)) | EC50 ([1]; read-out: Corrector Assay B EC50, human intestinal enteroid cells, 18-24 h incubation, acute 10 μM forskolin + 300 nM ivacaftor) [µM] | Corrector Assay A % activity [2] | EC50 [2] [µM] |
| --- | --- | --- | --- | --- |
| CC1(C)C[C@@H]2CCC(c3ccccc3)Nc3cccc(n3)S(=O)(=O)NC(=O)c3cccnc3N1C2 (single isomer, unassigned) [Compound 288] | +++ (+++ is >60%) | 1 to 3 | – | – |
| CC1(C)C[C@@H]2CC[C@H](c3ccccn3)Nc3cccc(n3)S(=O)(=O)NC(=O)c3ccc(-c4cccc(F)n4)nc3N1C2 [Compound 318, (14S,17R)-8-(6-fluoropyridin-2-yl)-12,12-dimethyl-17-(pyridin-2-yl)-2λ^6-thia-3,9,11,18,23-pentaazatetracyclo[17.3.1.111,14.05,10]tetracosa-1(22),5,7,9,19(23),20-hexaene-2,2,4-trione] | – | – | +++ (+++ is >60%) | < 1 |
| CC(C)(C)CCOc1ccn(-c2ccc3c(n2)N2C[C@@H](CC[C@H](c4ccccn4)Nc4cccc(n4)S(=O)(=O)NC3=O)CC2(C)C)n1 [Compound 320, (14S,17R)-8-[3-(3,3-dimethylbutoxy)-1H-pyrazol-1-yl]-12,12-dimethyl-17-(pyridin-2-yl)-2λ^6-thia-3,9,11,18,23-pentaazatetracyclo[17.3.1.111,14.05,10]tetracosa-1(22),5,7,9,19(23),20-hexaene-2,2,4-trione] | – | – | +++ (+++ is >60%) | < 1 |
| CC(C)(C)COc1ccn(-c2ccc3c(n2)N2C[C@@H](CC[C@H](c4ccccn4)Nc4cccc(n4)S(=O)(=O)NC3=O)CC2(C)C)n1 [Compound 322] | – | – | ++ (++ is 30-60%) | < 1 |
| CC1(C)C[C@@H]2CC[C@H](c3ccccn3)Nc3cccc(n3)S(=O)(=O)NC(=O)c3ccc(C4CCC(F)(F)CC4)nc3N1C2 [Compound 324, (14S,17R)-8-(4,4-Difluorocyclohexyl)-12,12-dimethyl-17-(pyridin-2-yl)-2λ^6-thia-3,9,11,18,23-pentaazatetracyclo[17.3.1.111,14.05,10]tetracosa-1(22),5,7,9,19(23),20-hexaene-2,2,4-trione] | – | – | +++ (+++ is >60%) | < 1 |
| CC1(C)C[C@@H]2CC[C@H](c3ccccn3)Nc3cccc(n3)S(=O)(=O)NC(=O)c3ccc(C4=CCC(F)(F)CC4)nc3N1C2 [Compound 325, (14S,17R)-8-(4,4-Difluorocyclohex-1-en-1-yl)-12,12-dimethyl-17-(pyridin-2-yl)-2λ^6-thia-3,9,11,18,23-pentaazatetracyclo[17.3.1.111,14.05,10]tetracosa-1(22),5,7,9,19(23),20-hexaene-2,2,4-trione] | – | – | +++ (+++ is >60%) | < 1 |
| COc1cccc(-c2ccc3c(n2)N2C[C@@H](CC[C@H](c4ccccn4)Nc4cccc(n4)S(=O)(=O)NC3=O)CC2(C)C)n1 [Compound 337] | – | – | +++ (+++ is >60%) | < 1 |
| COc1cccc(-c2ccc3c(n2)N2C[C@@H](CC[C@@H](c4ccccn4)Nc4cccc(n4)S(=O)(=O)NC3=O)CC2(C)C)n1 [Compound 338] | – | – | +++ (+++ is >60%) | < 1 |
| COc1cccc(-c2ccc3c(n2)N2C[C@@H](CC[C@H](c4ccccn4)Nc4cccc(n4)S(=O)(=O)NC3=O)CC2(C)C)c1 [Compound 339] | – | – | +++ (+++ is >60%) | < 1 |
| COc1cccc(-c2ccc3c(n2)N2C[C@@H](CC[C@@H](c4ccccn4)Nc4cccc(n4)S(=O)(=O)NC3=O)CC2(C)C)c1 [Compound 340] | – | – | ++ (++ is 30-60%) | 1 to 3 |
| CC1(C)C[C@@H]2CC[C@H](c3ccccn3)Nc3cccc(n3)S(=O)(=O)NC(=O)c3ccc(-c4c(Cl)cccc4Cl)nc3N1C2 [Compound 341] | – | – | +++ (+++ is >60%) | < 1 |
| CC1(C)C[C@@H]2CC[C@@H](c3ccccn3)Nc3cccc(n3)S(=O)(=O)NC(=O)c3ccc(-c4c(Cl)cccc4Cl)nc3N1C2 [Compound 342] | – | – | ++ (++ is 30-60%) | < 1 |
| CC1(C)C[C@@H]2CC[C@H](c3ccccn3)Nc3cccc(n3)S(=O)(=O)NC(=O)c3ccc(-c4c(F)cccc4Cl)nc3N1C2 [Compound 343] | – | – | +++ (+++ is >60%) | < 1 |
| CC1(C)C[C@@H]2CC[C@@H](c3ccccn3)Nc3cccc(n3)S(=O)(=O)NC(=O)c3ccc(-c4c(F)cccc4Cl)nc3N1C2 [Compound 344] | – | – | ++ (++ is 30-60%) | < 1 |
| CC(C)c1ccc(-c2ccc3c(n2)N2C[C@@H](CC[C@H](c4ccccn4)Nc4cccc(n4)S(=O)(=O)NC3=O)CC2(C)C)cc1 [Compound 347] | – | – | +++ (+++ is >60%) | < 1 |
| CC(C)c1ccc(-c2ccc3c(n2)N2C[C@@H](CC[C@@H](c4ccccn4)Nc4cccc(n4)S(=O)(=O)NC3=O)CC2(C)C)cc1 [Compound 348] | – | – | ++ (++ is 30-60%) | < 1 |
| CC1(C)C[C@@H]2CCC(c3ccccn3)Nc3cccc(n3)S(=O)(=O)NC(=O)c3ccc(-n4ccc(OCCC5C6(CC6)C56CC6)n4)nc3N1C2 (stereo partly drawn) [Compound 355, (14S)-8-[3-(2-{dispiro[2.0.2.1]heptan-7-yl}ethoxy)-1H-pyrazol-1-yl]-12,12-dimethyl-17-(pyridin-2-yl)-2λ^6-thia-3,9,11,18,23-pentaazatetracyclo[17.3.1.111,14.05,10]tetracosa-1(22),5,7,9,19(23),20-hexaene-2,2,4-trione] | – | – | +++ (+++ is >60%) | < 1 |
| CC1(C)CC2CCC(c3ccccn3)Nc3cccc(n3)S(=O)(=O)NC(=O)c3ccc(-n4ccc(OCCC5C6(CC6)C56CC6)n4)nc3N1C2 [Compound 356, (14S)-8-13-(2-{dispiro[2.0.2.11heptan-7-yl}ethoxy)-1H-pyrazol-1-yl]-12,12-dimethyl-17-(pyridin-2-yl)-2λ^6-thia-3,9,11,18,23-pentaazatetracyclo[17.3.1.111,14.05,10]tetracosa-1(22),5,7,9,19(23),20-hexaene-2,2,4-trione] | – | – | +++ (+++ is >60%) | < 1 |

Second part, the molecule after the results:

| Corrector Assay B % activity ([1]; % of chloride transport of triple combination control (3 μM Compound A + 3 μM tezacaftor + 300 nM ivacaftor)) | EC50 ([1]; read-out: Corrector Assay B EC50, human intestinal enteroid cells, 18-24 h incubation, acute 10 μM forskolin + 300 nM ivacaftor) [µM] | Corrector Assay A % activity [2] | EC50 [2] [µM] | Structure (SMILES) |
| --- | --- | --- | --- | --- |
| – | – | +++ (+++ is >60%) | < 1 | CC1(COc2ccn(-c3ccc4c(n3)N3C[C@@H](CC[C@H](c5ccccn5)Nc5cccc(n5)S(=O)(=O)NC4=O)CC3(C)C)n2)CC1 [Compound 321] |
| – | – | ++ (++ is 30-60%) | < 1 | CC(C)c1cnn(-c2ccc3c(n2)N2C[C@@H](CC[C@H](c4ccccn4)Nc4cccc(n4)S(=O)(=O)NC3=O)CC2(C)C)c1 [Compound 323] |
| – | – | +++ (+++ is >60%) | < 1 | CC1(C)CCC(c2ccc3c(n2)N2C[C@@H](CC[C@H](c4ccccn4)Nc4cccc(n4)S(=O)(=O)NC3=O)CC2(C)C)CC1 [Compound 326] |
| – | – | +++ (+++ is >60%) | < 1 | CC1(C)CC=C(c2ccc3c(n2)N2C[C@@H](CC[C@H](c4ccccn4)Nc4cccc(n4)S(=O)(=O)NC3=O)CC2(C)C)CC1 [Compound 327] |
| – | – | +++ (+++ is >60%) | < 1 | CC1(C)C[C@@H]2CC[C@H](c3ccccn3)Nc3cccc(n3)S(=O)(=O)NC(=O)c3ccc(C4CCCCC4)nc3N1C2 [Compound 328] |
| – | – | +++ (+++ is >60%) | < 1 | CC1(C)C[C@@H]2CC[C@H](c3ccccn3)Nc3cccc(n3)S(=O)(=O)NC(=O)c3ccc(C4=CCCCC4)nc3N1C2 [Compound 329] |
| – | – | +++ (+++ is >60%) | < 1 | CC1(C)C[C@@H]2CC[C@H](c3ccccn3)Nc3cccc(n3)S(=O)(=O)NC(=O)c3ccc(C4CCC4)nc3N1C2 [Compound 330, (14S,17R)-8-cyclobutyl-12,12-dimethyl-17-(pyridin-2-yl)-2λ^6-thia-3,9,11,18,23-pentaazatetracyclo[17.3.1.111,14.05,10]tetracosa-1(22),5,7,9,19(23),20-hexaene-2,2,4-trione] |
| – | – | +++ (+++ is >60%) | < 1 | CC1(C)C[C@@H]2CC[C@H](c3ccccn3)Nc3cccc(n3)S(=O)(=O)NC(=O)c3ccc(N4CCN(CC5CC5)C4=O)nc3N1C2 [Compound 331] |
| – | – | +++ (+++ is >60%) | 1 to 3 | CC(C)N1CCN(c2ccc3c(n2)N2C[C@@H](CC[C@H](c4ccccn4)Nc4cccc(n4)S(=O)(=O)NC3=O)CC2(C)C)C1=O [Compound 332] |
| – | – | +++ (+++ is >60%) | 1 to 3 | CN1CCN(c2ccc3c(n2)N2C[C@@H](CC[C@H](c4ccccn4)Nc4cccc(n4)S(=O)(=O)NC3=O)CC2(C)C)C1=O [Compound 333] |
| – | – | +++ (+++ is >60%) | < 1 | CC1(C)C[C@@H]2CC[C@H](c3ccccn3)Nc3cccc(n3)S(=O)(=O)NC(=O)c3ccc(-n4ccc(OCC5CC5)n4)nc3N1C2 [Compound 334] |
| – | – | +++ (+++ is >60%) | < 1 | COc1ccn(-c2ccc3c(n2)N2C[C@@H](CC[C@H](c4ccccn4)Nc4cccc(n4)S(=O)(=O)NC3=O)CC2(C)C)n1 [Compound 335] |
| – | – | +++ (+++ is >60%) | < 1 | CC(C)c1ccn(-c2ccc3c(n2)N2C[C@@H](CC[C@H](c4ccccn4)Nc4cccc(n4)S(=O)(=O)NC3=O)CC2(C)C)n1 [Compound 336] |
| – | – | ++ (++ is 30-60%) | < 1 | CC(C)n1cc(-c2ccc3c(n2)N2C[C@@H](CC[C@@H](c4ccccn4)Nc4cccc(n4)S(=O)(=O)NC3=O)CC2(C)C)cn1 [Compound 345] |
| – | – | ++ (++ is 30-60%) | < 1 | CC(C)n1cc(-c2ccc3c(n2)N2C[C@@H](CC[C@H](c4ccccn4)Nc4cccc(n4)S(=O)(=O)NC3=O)CC2(C)C)cn1 [Compound 346] |
| – | – | +++ (+++ is >60%) | < 1 | CC1(C)C[C@@H]2CC[C@H](c3ccccn3)Nc3cccc(n3)S(=O)(=O)NC(=O)c3ccc(C4CC4)nc3N1C2 [Compound 349] |
